Source: patent US6525001B1, “Substituted pyrimidine and pyridine herbicides” (Mid-American Commercialization Corporation, priority 1997, dated 2003)

Columns and labels:
Assay type in all cases: in vivo
[1] = tested on: bedstraw (Galium aparine); assay: Test B pre-/postemergence; parameters: key: 0 is no effect; 10 is complete control; conditions: Postemergence
Summary of the method: (§1)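 Response scores run from 0, meaning no effect, to 10, meaning complete control, assigned by eye relative to controls twelve to sixteen days after spraying. Treatment was both preemergence on planted seed and postemergence on plants at the 1- to 4-leaf stage.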

[2] = tested on: blackgrass (Alopecurus myosuroides); assay: Test B pre-/postemergence; parameters: key: 0 is no effect; 10 is complete control; conditions: for Blackgrass plant response rating: Preemergence
Summary of the method: as §1

[3] = tested on: broadleaf signalgrass (Brachiaria decumbens); assay: Test B pre-/postemergence; parameters: key: 0 is no effect; 10 is complete control; conditions: for B. signalgrass plant response rating: Preemergence
Summary of the method: as §1

[4] = tested on: cocklebur (Xanthium strumarium); assay: Test B pre-/postemergence; parameters: key: 0 is no effect; 10 is complete control; conditions: for Plant response rating, Cocklebur: Postemergence; for Cocklebur plant response rating: Preemergence
Summary of the method: as §1

corn (Zea mays) = assay: Test B pre-/postemergence; parameters: key: 0 is no effect; 10 is complete control; conditions: for Corn plant response rating: Preemergence
Summary of the method: as §1

[5] = tested on: crabgrass (Digitaria sanguinalis); assay: Test B pre-/postemergence; parameters: key: 0 is no effect; 10 is complete control; conditions: for Crabgrass plant response rating: Preemergence
Summary of the method: as §1

[6] = tested on: giant foxtail (Setaria faberii); assay: Test B pre-/postemergence; parameters: key: 0 is no effect; 10 is complete control
Summary of the method: as §1

[7] = tested on: momingglory (Ipomoea hederacea); assay: Test B pre-/postemergence; parameters: key: 0 is no effect; 10 is complete control
Summary of the method: as §1

[8] = tested on: pigweed (Amaranthus retroflexus); assay: Test B pre-/postemergence; parameters: key: 0 is no effect; 10 is complete control
Summary of the method: as §1

[9] = tested on: purple nutsedge (Cyperus rotundus); assay: Test B pre-/postemergence; parameters: key: 0 is no effect; 10 is complete control
Summary of the method: as §1

rape (Brassica napus) = assay: Test B pre-/postemergence; parameters: key: 0 is no effect; 10 is complete control
Summary of the method: as §1

soybean (Glycine max) = assay: Test B pre-/postemergence; parameters: key: 0 is no effect; 10 is complete control
Summary of the method: as §1

[10] = tested on: sugar beet (Beta vulgaris); assay: Test B pre-/postemergence; parameters: key: 0 is no effect; 10 is complete control
Summary of the method: as §1

[11] = tested on: velvetleaf (Abutilon theophrasti); assay: Test B pre-/postemergence; parameters: key: 0 is no effect; 10 is complete control
Summary of the method: as §1

[12] = tested on: wheat (Triticum aestivum); assay: Test B pre-/postemergence; parameters: key: 0 is no effect; 10 is complete control
Summary of the method: as §1

wild oat (Avena fatua) = assay: Test B pre-/postemergence; parameters: key: 0 is no effect; 10 is complete control
Summary of the method: as §1

[13] = tested on: bamyardgrass (Echinochloa crus-galli); assay: Test B flood test
Summary of the method: (§2)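 Each value is a visual injury score relative to controls, with 10 meaning complete control and 0 no effect. Evaluation took place twelve to sixteen days after the 2-leaf-stage plants were treated and kept in the greenhouse.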

[14] = tested on: duck salad (Heteranthera limosa); assay: Test B flood test
Summary of the method: as §2

rice (Oryza sativa) = assay: Test B flood test
Summary of the method: as §2

[15] = tested on: smallflower flatsedge (Cyperus difformis); assay: Test B flood test
Summary of the method: as §2

[16] = Rate 250 g/ha, Postemergence (so in the source)
[17] = Rate 62 g/ha, Postemergence (flood test)
[18] = Rate 125 g/ha, Postemergence, flood test
[19] = Rate 250 g/ha, Postemergence (flood test species)
[20] = Rate 125 g/ha, Postemergence section (flood test species)

Question: Which results are given for `Cc1cnc(-c2ccc(F)cc2F)nc1Cc1cccc(C(F)(F)F)c1` [Compound 31]?
Answer: Plant response rating, Bedstraw ([1]; Rate 62 g/ha): 4; Plant response rating, Bedstraw ([1]; Rate 125 g/ha): 6; Plant response rating, Bedstraw ([1]; Rate 250 g/ha): 6; Plant response rating, Blackgrass ([2]; Rate 62 g/ha, Postemergence): 2; Blackgrass plant response rating ([2]; Rate 62 g/ha): 1; Plant response rating, Blackgrass ([2]; Rate 125 g/ha, Postemergence): 2; Blackgrass plant response rating ([2]; Rate 125 g/ha): 2; Plant response rating, Blackgrass ([2]; Rate 250 g/ha, Postemergence): 4; Plant response rating, Blackgrass [2, 16]: 3; Plant response rating, B. signalgrass ([3]; Rate 62 g/ha, Postemergence): 3; B. signalgrass plant response rating ([3]; Rate 62 g/ha): 3; Plant response rating, B. signalgrass ([3]; Rate 125 g/ha, Postemergence): 3; B. signalgrass plant response rating ([3]; Rate 125 g/ha): 9; Plant response rating, B. signalgrass ([3]; Rate 250 g/ha, Postemergence): 5; Plant response rating, B. signalgrass ([3]; Rate 250 g/ha, Postemergence as printed in head r139 (second section for compounds 26-50)): 9; Plant response rating, Cocklebur ([4]; Rate 62 g/ha): 6; Cocklebur plant response rating ([4]; Rate 62 g/ha): 0; Plant response rating, Cocklebur ([4]; Rate 125 g/ha): 6; Cocklebur plant response rating ([4]; Rate 125 g/ha): 0; Plant response rating, Cocklebur ([4]; Rate 250 g/ha): 7; Plant response rating, Corn (corn (Zea mays); Rate 62 g/ha, Postemergence): 2; Corn plant response rating (corn (Zea mays); Rate 62 g/ha): 0; Plant response rating, Corn (corn (Zea mays); Rate 125 g/ha, Postemergence): 2; Corn plant response rating (corn (Zea mays); Rate 125 g/ha): 0; Plant response rating, Corn (corn (Zea mays); Rate 250 g/ha, Postemergence): 2; Plant response rating, Corn (corn (Zea mays); [16]): 1; Plant response rating, Crabgrass ([5]; Rate 62 g/ha, Postemergence): 4; Crabgrass plant response rating ([5]; Rate 62 g/ha): 1; Plant response rating, Crabgrass ([5]; Rate 125 g/ha, Postemergence): 8; Crabgrass plant response rating ([5]; Rate 125 g/ha): 4; Plant response rating, Crabgrass ([5]; Rate 250 g/ha, Postemergence): 9; Plant response rating, Crabgrass [5, 16]: 10; Plant response rating, Giant foxtail ([6]; Rate 62 g/ha, Postemergence): 2; Giant foxtail plant response rating ([6]; Rate 62 g/ha, Preemergence): 2; Giant foxtail plant response rating ([6]; Rate 125 g/ha, Postemergence): 3; Giant foxtail plant response rating ([6]; Rate 125 g/ha, Preemergence): 5; Plant response rating, Giant foxtail ([6]; Rate 250 g/ha, Postemergence): 3; Plant response rating, Giant foxtail [6, 16]: 10; Plant response rating, Morningglory ([7]; Rate 62 g/ha, Postemergence): 3; Morningglory plant response rating ([7]; Rate 62 g/ha, Preemergence): 0; Morningglory plant response rating ([7]; Rate 125 g/ha, Postemergence): 3; Morningglory plant response rating ([7]; Rate 125 g/ha, Preemergence): 2; Plant response rating, Morningglory ([7]; Rate 250 g/ha, Postemergence): 4; Plant response rating, Morningglory [7, 16]: 2; Plant response rating, Redroot pigweed ([8]; Rate 62 g/ha, Postemergence): 8; Redroot pigweed plant response rating ([8]; Rate 62 g/ha, Preemergence): 1; Redroot pigweed plant response rating ([8]; Rate 125 g/ha, Postemergence): 9; Redroot pigweed plant response rating ([8]; Rate 125 g/ha, Preemergence): 2; Plant response rating, Redroot pigweed ([8]; Rate 250 g/ha, Postemergence): 9; Plant response rating, Redroot pigweed [8, 16]: 3; Plant response rating, Nutsedge ([9]; Rate 62 g/ha, Postemergence): 0; Nutsedge plant response rating ([9]; Rate 62 g/ha, Preemergence): 0; Nutsedge plant response rating ([9]; Rate 125 g/ha, Postemergence): 0; Nutsedge plant response rating ([9]; Rate 125 g/ha, Preemergence): 0; Plant response rating, Nutsedge [9, 16]: 0; Plant response rating, Rape (rape (Brassica napus); Rate 62 g/ha, Postemergence): 8; Rape plant response rating (rape (Brassica napus); Rate 62 g/ha, Preemergence): 0; Rape plant response rating (rape (Brassica napus); Rate 125 g/ha, Postemergence): 8; Rape plant response rating (rape (Brassica napus); Rate 125 g/ha, Preemergence): 0; Plant response rating, Rape (rape (Brassica napus); Rate 250 g/ha, Postemergence): 9; Plant response rating, Rape (rape (Brassica napus); [16]): 1; Plant response rating, Soybean (soybean (Glycine max); Rate 62 g/ha, Postemergence): 4; Soybean plant response rating (soybean (Glycine max); Rate 62 g/ha, Preemergence): 0; Soybean plant response rating (soybean (Glycine max); Rate 125 g/ha, Postemergence): 4; Plant response rating, Soybean (soybean (Glycine max); Rate 125 g/ha, Preemergence): 0; Plant response rating, Soybean (soybean (Glycine max); Rate 250 g/ha, Postemergence): 7; Plant response rating, Soybean (soybean (Glycine max); [16]): 0; Plant response rating, Sugarbeets ([10]; Rate 62 g/ha, Postemergence): 10; Sugarbeets plant response rating ([10]; Rate 62 g/ha, Preemergence): 0; Sugarbeets plant response rating ([10]; Rate 125 g/ha, Postemergence): 10; Plant response rating, Sugarbeets ([10]; Rate 125 g/ha, Preemergence): 0; Plant response rating, Sugarbeets ([10]; Rate 250 g/ha, Postemergence): 10; Plant response rating, Sugarbeets [10, 16]: 3; Plant response rating, Velvetleaf ([11]; Rate 62 g/ha, Postemergence): 2; Velvetleaf plant response rating ([11]; Rate 62 g/ha, Preemergence): 0; Velvetleaf plant response rating ([11]; Rate 125 g/ha, Postemergence): 2; Plant response rating, Velvetleaf ([11]; Rate 125 g/ha, Preemergence): 0; Plant response rating, Velvetleaf ([11]; Rate 250 g/ha, Postemergence): 4; Plant response rating, Velvetleaf [11, 16]: 0; Wheat plant response rating ([12]; Rate 62 g/ha, Postemergence): 1; Wheat plant response rating ([12]; Rate 62 g/ha, Preemergence): 0; Wheat plant response rating ([12]; Rate 125 g/ha, Postemergence): 3; Plant response rating, Wheat ([12]; Rate 125 g/ha, Preemergence): 0; Plant response rating, Wheat ([12]; Rate 250 g/ha, Postemergence): 4; Plant response rating, Wheat [12, 16]: 0; Wild oats plant response rating (wild oat (Avena fatua); Rate 62 g/ha, Postemergence): 2; Wild oats plant response rating (wild oat (Avena fatua); Rate 62 g/ha, Preemergence): 0; Wild oats plant response rating (wild oat (Avena fatua); Rate 125 g/ha, Postemergence): 3; Plant response rating, Wild oats (wild oat (Avena fatua); Rate 125 g/ha, Preemergence): 1; Plant response rating, Wild oats (wild oat (Avena fatua); Rate 250 g/ha, Postemergence): 4; Plant response rating, Wild oats (wild oat (Avena fatua); [16]): 2; Plant response rating, Barnyardgrass [13, 17]: 2; Plant response rating, Barnyardgrass [13, 18]: 3; Plant response rating, Barnyardgrass [13, 19]: 5; Plant response rating, Ducksalad [14, 17]: 1; Plant response rating, Ducksalad [14, 18]: 2; Plant response rating, Ducksalad [14, 19]: 6; Plant response rating, Rice (rice (Oryza sativa); [17]): 1; Rice plant response rating (rice (Oryza sativa); [20]): 2; Plant response rating, Rice (rice (Oryza sativa); [19]): 3; Plant response rating, S. Flatsedge [15, 17]: 4; S. Flatsedge plant response rating [15, 20]: 7; Plant response rating, S. Flatsedge [15, 19]: 8
